According to US7589080B2, “β-cyclodextrin compositions, and use to prevent transmission of sexually transmitted diseases” (priority 2000, dated 2009):

Legend:
[1] = tested on: vaginal epithelium; assay: Vaginal epithelial toxicity (ethidium bromide homodimer-1 staining); format: in vivo, CF-1 mice; settings: 1% (w/v), intravaginal, 15 min
Method: CF-1 mice were pretreated with 2.5 mg progestin; one week later, three groups of three mice each were inoculated with 50 Tl of either PBS, 1% (w/v) nonoxynol-9, or 3% (w/v) 2-OH-βCD (20 mM). Each test solution also contained the membrane-impermeant DNA binding fluorescent dye, ethidium bromide homodimer-1 (20 TM, Molecular Probes; Eugene Oreg.; Hyytinen et al., supra, 1994). Fifteen min following exposure to the test agents the mice were euthanized, the vaginas were dissected and opened longitudinally, and viewed using a fluorescent microscope and TRITC filter set.
To examine the effect of a βCD on the vaginal epithelium, CF-1 mice were pretreated with progesterone and one week later were inoculated with 50 Tl of either phosphate buffered saline (PBS), 1% (w/v) nonoxynol-9, or 3% (w/v) 2-OH-βCD (20 mM) containing the membrane impermeant DNA binding fluorescent dye, ethidium bromide homodimer-1. The vaginas of the mice were viewed by fluorescent microscopy.

[2] = tested on: HIV; settings: inhibition of sphingolipid synthesis; cited from earlier work

Compound	Damage to vaginal epithelium [1]	Reduction of HIV infection of CD4+ human cells [2]
nonoxynol-9	considerable epithelial damage	
CCCCCCCCCCCCCCCC(=O)NC(CN1CCOCC1)C(O)c1ccccc1 (centres unmarked) [PPMP, 1-phenyl-2-hexadecanoylamino-3-morpholino-1-propanol]		50%
